One data set concerns lice. Kind of data set: Pediculicidal activity of volatile silicone oil itself (stated, no method). Type of data set: in vivo, Pediculus humanus var capitis.
The subject of the next data set is nits. Kind of data set: Nit-killing activity of volatile silicone oil itself (stated, no method). The class given is in vivo, Pediculus humanus var capitis.
The nature of data set [1]: Stability of malathion compositions, degradation measured by HPLC. The class given is physicochemical. On the procedure: The inventors measured malathion degradation by HPLC. The HPLC method was reverse-phase HPLC with UV detection (210 nm). The column used is an xTERRA C18 with a water/acetonitrile gradient and a flow rate of 0.6 ml/min. The malathion compositions tested comprise either malathion on its own, or a composition of 50% malathion and 50% isopropanol, or a composition of 50% malathion and 50% polydimethylcyclosiloxane, or a composition of 33% malathion with 33% isopropanol and 33% polydimethylcyclosiloxane. These compositions also contain excipients such as povidone as viscosity agent.
The stability of these compositions was assessed for 114 hours at 60° Celsius (Table 1).

Turning to `C[Si]1(C)O[Si](C)(C)O[Si](C)(C)O[Si](C)(C)O[Si](C)(C)O1` [decamethylcyclopentasiloxane], in the data set with lice, the pediculicidal activity was determined as 100%. Further, the nit-killing activity with nits was roughly 70%.

For the molecule `CCOC(=O)CC(SP(=S)(OC)OC)C(=O)OCC` (stereo not shown) [Malathion alone, malathion], the “Malathion content (%)” value worked out at 100.90% in data set [1] (T0), 100.3% in data set [1] (T 72 hrs 60° C.) and 91% in data set [1] (T 114 hrs 60° C.). Also, the figures for the “Malathion loss (%)” value in data set [1] (T 72 hrs 60° C.) and in data set [1] (T 114 hrs 60° C.) were “(−0.1) %” and “(−9.8) %”, respectively.

Source of the values: patent publication US20110269718A1, “PHARMACEUTICAL COMPOSITION CONTAINING MALATHION AND VOLATILE CYCLIC SILICONE” (priority 2010, published 2011).
